# Results taken from article PMC5770468, “Cardiac glycoside/aglycones inhibit HIV-1 gene expression by a mechanism requiring MEK1/2-ERK1/2 signaling” (Scientific Reports, 2018).
# Assays:
# [1] = tested on: PBMCs from HIV-infected patients; test: Cell viability by XTT in HIV-infected patient PBMCs; type: cell-based, human; conditions: up to 20 d of culture, relative to controls
# Procedure: Figure 2 CSs inhibit the growth of clinical strains of HIV isolated from HIV infected patients. PBMCs from HIV infected patients were depleted of CD8^+ T cells (Supplementary Fig. S3), activated by anti-CD3 and anti-CD28 antibodies, and treated 20 d with indicated concentrations of drug/compound. HIV particle formation was quantitated by p24^CA ELISA of cell supernatants and viability of cells were assayed by XTT. […] (a–e) CSs potently impair the outgrowth of HIV from HIV-infected PBMCs (n = 3, mean, s.e.m.). Graphs of viral growth (p24 protein levels) and cell viability (gray circles, adjacent y-axis) of cells treated with drug/compounds (red triangles) or DMSO (black circles) are shown. The drug 3TC and the CS digoxin (d–e) were provided for comparison. […] Dose-response curves of CS effects on HIV replication (relative Gag expression, black circles) and cell viability (gray circles) were measured on day 14.
# Human PBMCs were obtained for experiments from drug-naïve HIV-infected patients, depleted of CD8^+ T cells using Dynabeads CD8 (Invitrogen, #111.47D), activated with anti-CD3 and anti-CD28 antibodies, and treated as previously described and above[10],[11]. […] HIV growth in cultures was monitored by p24^CA ELISA of cell supernatants harvested (detailed below) and the effect of compounds on cell viability were monitored by XTT assay.
# Tra2β = test: Immunoblot of Tra2β in HeLa rtTA-HIV-ΔMls cells; type: cell-based, human; conditions: 3 d with ~IC50s of CSs
# Text: Figure 4 CSs suppress HIV-1 gene expression by altering viral RNA processing. […] (a,b) CSs induce oversplicing of HIV-1 RNAs (n ≥ 3, mean, s.e.m.). (a) Diagram of the primer positions (arrow heads) used for qRT-PCR. (b) Graph of the relative amount of US (black), SS (white), and MS (gray) HIV-1 RNAs in cells treated with various CSs. (c) Nuclear export of HIV-1 US RNAs in cells is altered by CSs (representative n ≥ 4). HIV-1 US RNAs were localized by FISH after treating HeLa rtTA-HIV(Gag-GFP) cells as described above but with ~IC90s of CSs. Nuclei were stained by DAPI and images captured at 630 × magnification. […] SRp20, Tra2β, and tubulin were analyzed by immunoblot of HeLa rtTA-HIV-ΔMls cells treated as described above except cells of this representative blot were treated 3 d with ~IC50s of CSs. […]
# To monitor HIV-1 gene expression or replication, Gag release into cell culture supernatants were assayed by ELISA using a p24^CA antigen capture assay kit (AIDS & Cancer Virus Program, NCI-Frederick, Frederick, MD USA). […] For analysis of HIV-1 and SR protein expression (and phosphorylation states with calf intestinal alkaline phosphatase treatments), cells were lysed and analyzed by western blot as previously outlined. […] Activation of MAPKs was determined by western blot quantitation and calculation of phospho/total protein levels. […]
Structure (SMILES),cell viability of HIV-infected PBMCs [1],abundance of a modified species of Tra2β (Tra2β)
C[C@]12CC[C@H](O)C[C@H]1CC[C@@H]1[C@@H]2CC[C@]2(C)[C@@H](C3=CC(=O)OC3)CC[C@]12O [Digitoxigenin],no observable changes in cell viability,no effect
C[C@H]1O[C@@H](O[C@H]2[C@@H](O)C[C@H](O[C@H]3[C@@H](O)C[C@H](O[C@H]4CC[C@@]5(C)[C@H](CC[C@@H]6[C@@H]5CC[C@]5(C)[C@@H](C7=CC(=O)OC7)CC[C@]65O)C4)O[C@@H]3C)O[C@@H]2C)C[C@H](O)[C@@H]1O [Digitoxin],no observable changes in cell viability,
CC(=O)O[C@H]1C[C@H](O[C@H]2[C@@H](O)C[C@H](O[C@H]3[C@@H](O)C[C@H](O[C@H]4CC[C@@]5(C)[C@H](CC[C@@H]6[C@@H]5C[C@@H](O)[C@]5(C)[C@@H](C7=CC(=O)OC7)CC[C@]65O)C4)O[C@@H]3C)O[C@@H]2C)O[C@H](C)[C@H]1O[C@@H]1O[C@H](CO)[C@@H](O)[C@H](O)[C@H]1O [Lanatoside C],,no effect
